Biological target: T1, LdAAP3 (Leishmania donovani, UniProt Q86G79)
T1 construct: native transporter in intact mid-log promastigotes, not overexpressed; no construct
T1 sequence (Q86G79 1-480): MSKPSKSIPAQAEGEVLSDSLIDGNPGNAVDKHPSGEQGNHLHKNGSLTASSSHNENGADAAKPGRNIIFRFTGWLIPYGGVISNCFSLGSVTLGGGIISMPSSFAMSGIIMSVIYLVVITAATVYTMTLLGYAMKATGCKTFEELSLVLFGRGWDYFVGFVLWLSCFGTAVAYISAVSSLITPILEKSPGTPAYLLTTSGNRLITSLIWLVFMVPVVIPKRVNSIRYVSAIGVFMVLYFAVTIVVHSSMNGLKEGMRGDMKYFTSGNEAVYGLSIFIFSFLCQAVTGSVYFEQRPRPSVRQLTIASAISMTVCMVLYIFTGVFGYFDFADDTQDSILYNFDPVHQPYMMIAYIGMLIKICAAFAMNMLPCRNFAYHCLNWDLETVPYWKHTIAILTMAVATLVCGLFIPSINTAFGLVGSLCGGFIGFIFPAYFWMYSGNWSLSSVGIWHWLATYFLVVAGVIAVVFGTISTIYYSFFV
Test: inhibition of [3H]arginine uptake by intact promastigotes, rapid filtration
Format: cell-based
Conditions: read-out: Percent arginine transport inhibition
Description: inhibition of [3H]arginine uptake by intact promastigotes, rapid filtration on LdAAP3

Compound | inhibition at 1000 µM [%] | also measured
N=C(N)NOCC[C@H](N)C(=O)O [compound 4, Canavanine] | – | inhibition at 500 µM: 40%
NC(=O)NCCC[C@H](N)C(=O)O [compound 9, L-citrulline] | 10 | –
N=C(N)c1ccc(OCCCCCOc2ccc(C(=N)N)cc2)cc1 [compound 2, Pentamidine] | – | inhibition at 100 µM: 38%
CNC(=N)NCCC[C@H](N)C(=O)O [compound 3, N-Methyl L-Arginine Acetate] | 66 | –

From article PMC6502434, “The arginine sensing and transport binding sites are distinct in the human pathogen Leishmania” (PLoS Neglected Tropical Diseases, 2019)
